These results are taken from US12612403B2, “Nitrogen-containing heterocyclic derivative inhibitor, and preparation method therefor and use thereof” (SHANGHAI HANSOH BIOMEDICAL CO., LTD., priority 2024, dated 2026).

This assay deals with PCSK9 secreted by HepG2 cells. The experiment in a line: Effect on the concentration of PCSK9 secreted by HepG2 cells (ELISA). The assay is classed as cell-based. The conditions noted are these: Homo sapiens, 48 hours, PCSK9 in culture medium by ELISA. The method, then: 1. Experimental objective: To detect the inhibitory effect of the compounds on PCSK9.
2. Experimental method: • 1) HepG2 cell strain was cultured in the complete culture medium at 37° C., 5% CO2 to 70-90% confluence. • 2) The cells were digested and resuspended in the experimental culture medium, inoculated at 25,000 cells/well/200 μL in a 96-well cell culture plate, and cultured at 37° C. and 5% CO2 for 20-24 hours. • 3) The culture medium was removed from the cell culture plate, and the cell culture plate was washed once by adding 200 ul of the experimental culture medium to each well. • 4) Preparation of positive control compound and compound to be tested: the positive control compound and the compound to be tested were diluted on the compound plate. • 5) The diluted compound was added to the cell culture plate at 250 μL per well and incubated at 37° C. and 5% CO2 for 48 hours. • 6) The cell culture medium was collected at 200 μL per well and cryopreserved at −80° C. for later use. • 7) A sample of the cell culture medium was taken from the −80° C. cryopreservation condition, dissolved, vortexed, and centrifuged for later use. • 8) Preparation of standard curve: corresponding volumes of Dilution buffer were successively added to respective standard tubes, and in the order of the concentrations of 10, 5, 2.5, 1.25, 0.625, 0.313, 0.16, 0 ng/mL, the standard was diluted in series by taking the corresponding volume from the original tube or the last concentration tube. • 9) Preparation of washing liquid: 10x Wash buffer was diluted into 1x with Milli-Q for later use. • 10) According to the standard curve wells and sample wells set according to a plate map, 100 μL/well of the corresponding standards and culture medium samples were added to the wells, with 2 replicate wells. A self-adhesive seal was applied, the plate was placed on a plate shaker at room temperature, gently shaken, uniformly mixed, and incubated for 1 hour. • 11) The plate was placed on the plate washer, the washing liquid was set to 350 μL per well, and the plate was washed 4 times repeatedly. • 12) 100 μL/well of an HRP-conjugated detection antibody was added, a self-adhesive seal was applied, and the plate was placed on the plate shaker, well mixed uniformly, and incubated for 1 hour. • 13) The plate was placed on the plate washer, the washing liquid was set to 350 μL per well, and the plate was washed 4 times repeatedly. • 14) 100 μL/well of Substrate reagent was added, and the plate was placed in the dark, applied with a self-adhesive seal, placed on the plate shaker, well mixed uniformly, and incubated for 10-20 minutes. • 15) 100 μL of Stop solution (1N H2SO4) was added to each well and mixed uniformly. • 16) The optical density (OD) value in each well was measured in sequence at a wavelength of 450 nm by the microplate reader. Detection was carried out within 30 min after the reaction was stopped.
3. Experimental data processing method: After the OD values were read by the microplate reader, the OD value of the 0-concentration standard in the standard group was subtracted from the OD values of the standards, control group, and samples to obtain the actual OD values for these wells. A standard curve was plotted with Graphpad and the concentration of the sample was calculated. If the dilution was performed during the sample detection, the calculated sample concentration was necessarily multiplied by the corresponding dilution ratio in the final calculation, which was the actual concentration of the sample. Inhibition rate=(actual concentration in control−actual concentration in sample)/actual concentration in control*100. According to the inhibition rates corresponding to the different concentrations, IC50 was derived by Graphpad.

The structures appear in SMILES notation.

Usually IC50 stands for the concentration at which inhibition is half-maximal. A high value points to weaker potency. `O=C1c2cccc(C(F)(F)F)c2CN1c1ccc(N[C@H]2CC[C@H](Nc3nc4cc(F)ccn4n3)C2)nc1` [Example 26] had an IC50 of 22.8 µM.
Compound `O=C1c2ncc(F)cc2CN1c1ccc(N[C@H]2CC[C@H](Nc3nc4cc(C(F)(F)F)ccn4n3)C2)nc1` [Example 27, 3-Fluoro-6-(6-(((1S,3S)-3-((7-(trifluoromethyl)-[1,2,4]triazolo[1,5-a]pyridin-2-yl)amino)cyclopentyl)amino)pyridin-3-yl)-5,6-dihydro-7H-pyrrolo[3,4-b]pyridin-7-one] returned an IC50 of 12 µM.
Turning to `CC(C)(C)c1ccc2c(n1)C(=O)N(c1ccc(N[C@H]3CC[C@H](Nc4nc5cc(F)ccn5n4)C3)nc1)C2` [Example 49, 2-(Tert-butyl)-6-(6-(((1S,3S)-3-((7-fluoro-[1,2,4]triazolo[1,5-a]pyridin-2-yl)amino)cyclopentyl)amino)pyridin-3-yl)-5,6-dihydro-7H-pyrrolo[3,4-b]pyridin-7-one], the IC50 was determined as 2.7 µM. Against the preceding compound, the IC50 is about 4.4-fold lower.
For `Cc1cc2c(c(C)n1)CN(c1ccc(N[C@H]3CC[C@H](Nc4nc5cc(F)ccn5n4)C3)nc1)C2=O` [Example 51, 2-(6-(((1S,3S)-3-((7-fluoro-[1,2,4]triazolo[1,5-a]pyridin-2-yl)amino)cyclopentyl)amino)pyridin-3-yl)-4,6-dimethyl-2,3-dihydro-1H-pyrrolo[3,4-c]pyridin-1-one], the IC50 was 21.3 µM.
For `O=C1N(c2ccc(N[C@H]3CC[C@H](Nc4nc5cc(F)ccn5n4)C3)nc2)CCC12CC2` [Example 54, 5-(6-(((1S,3S)-3-((7-fluoro-[1,2,4]triazolo[1,5-a]pyridin-2-yl)amino)cyclopentyl)amino)pyridin-3-yl)-5-azaspiro[2.4]heptan-4-one], the IC50 came to 23.4 µM.
Then `Cc1nccc2c1CN(c1ccc(N[C@H]3CC[C@H](Nc4nc5cc(C(F)(F)F)ccn5n4)C3)nc1)C2=O` [Example 57, 4-methyl-2-(6-(((1S,3S)-3-((7-(trifluoromethyl)-[1,2,4]triazolo[1,5-a]pyridin-2-yl)amino)cyclopentyl)amino)pyridin-3-yl)-2,3-dihydro-1H-pyrrolo[3,4-c]pyridin-1-one], with 1.7 µM.
Compound `O=C1N(c2ccc(N[C@H]3CC[C@H](Nc4nc5cc(C(F)(F)F)ccn5n4)C3)nc2)CCC12CC2` [Example 58, 5-(6-(((1S,3S)-3-((7-(trifluoromethyl)-[1,2,4]triazolo[1,5-a]pyridin-2-yl)amino)cyclopentyl)amino)pyridin-3-yl)-5-azaspiro[2.4]heptan-4-one] registered an IC50 of 11.1 µM. This IC50 is about 6.5-fold higher than that of the compound before.
Then `Cc1cccnc1C(=O)Nc1ccc(N[C@H]2CC[C@H](Nc3nc4cc(C(F)(F)F)ccn4n3)C2)nc1` [Example 60], with 27.4 µM.
`O=C1c2cc(F)cnc2CN1c1ccc(N[C@H]2CC[C@H](Nc3nc4cc(C(F)(F)F)ccn4n3)C2)nc1` [Example 61, 3-fluoro-6-(6-(((1S,3S)-3-((7-(trifluoromethyl)-[1,2,4]triazolo[1,5-a]pyridin-2-yl)amino)cyclopentyl)amino)pyridin-3-yl)-6,7-dihydro-5H-pyrrolo[3,4-b]pyridin-5-one] registered an IC50 of 0.6 µM.
In turn, `CN(Cc1ccc(N[C@H]2CC[C@H](Nc3nc4cc(C(F)(F)F)ccn4n3)C2)nc1)C(=O)c1ccccn1` [Example 62, N-methyl-N-(6-(((1S,3S)-3-((7-(trifluoromethyl)-[1,2,4]triazolo[1,5-a]pyridin-2-yl)amino)cyclopentyl)amino)pyridin-3-yl)methylpicolinamide] displayed a 50% inhibitory concentration (IC50) of 17.6 µM.
Then `CC(C)(O)c1cccn(-c2ccc(N[C@H]3CC[C@H](Nc4nc5cc(C(F)(F)F)ccn5n4)C3)nc2)c1=O` [Example 63, 3-(2-hydroxypropan-2-yl)-6′-(((1S,3S)-3-((7-(trifluoromethyl)-[1,2,4]triazolo[1,5-a]pyridin-2-yl)amino)cyclopentyl)amino)-2H-[1,3′-bipyridine]-2-one], with 26.5 µM.
In the case of `N#Cc1cc2c(cn1)CN(c1ccc(N[C@H]3CC[C@H](Nc4nc5cc(C(F)(F)F)ccn5n4)C3)nc1)C2=O` [Example 66, 1-carbonyl-2-(6-(((1S,3S)-3-((7-(trifluoromethyl)-[1,2,4]triazolo[1,5-a]pyridin-2-yl)amino)cyclopentyl)amino)pyridin-3-yl)-2,3-dihydro-1H-pyrrolo[3,4-c]pyridine-6-carbonitrile], the concentration for half-maximal inhibition (IC50) was 0.8 µM.
Then `Cc1ccc2c(n1)CN(c1ccc(N[C@H]3CC[C@H](Nc4nc5cc(C(F)(F)F)ccn5n4)C3)nc1)C2=O` [Example 67, 2-methyl-6-(6-(((1S,3S)-3-((7-(trifluoromethyl)-[1,2,4]triazolo[1,5-a]pyridin-2-yl)amino)cyclopentyl)amino)pyridin-3-yl)-6,7-dihydro-5H-pyrrolo[3,4-b]pyridin-5-one], with 17.1 µM; and `O=c1[nH]cccc1-c1ccc(N[C@H]2CC[C@H](Nc3nc4cc(C(F)(F)F)ccn4n3)C2)nc1` [Example 73, 6′-(((1S,3S)-3-((7-(trifluoromethyl)-[1,2,4]triazolo[1,5-a]pyridin-2-yl)amino)cyclopentyl)amino)-[3,3′-bipyridine]-2(1H)-one], with 14.3 µM; and `CC(C)(O)c1ccn(-c2ccc(N[C@H]3CC[C@H](Nc4nc5cc(C(F)(F)F)ccn5n4)C3)nc2)c(=O)c1` [Example 81, 4-(2-hydroxypropan-2-yl)-6′-(((1S,3S)-3-((7-(trifluoromethyl)-[1,2,4]triazolo[1,5-a]pyridin-2-yl)amino)cyclopentyl)amino)-2H-[1,3′-bipyridine]-2-one], with 26.5 µM.
Then `Cc1ccc2c(c1)CN(c1ccc(N[C@H]3CC[C@H](Nc4nc5cc(C(F)(F)F)ccn5n4)C3)nc1)C2=O` [Example 85, 5-methyl-2-(6-(((1S,3S)-3-((7-(trifluoromethyl)-[1,2,4]triazolo[1,5-a]pyridin-2-yl)amino)cyclopentyl)amino)pyridin-3-yl)isoindolin-1-one], with 2.6 µM; and `O=C1c2ccc(F)cc2CN1c1ccc(N[C@H]2CC[C@H](Nc3nc4cc(C(F)(F)F)ccn4n3)C2)nc1` [Example 86, 5-fluoro-2-(6-(((1S,3S)-3-((7-(trifluoromethyl)-[1,2,4]triazolo[1,5-a]pyridin-2-yl)amino)cyclopentyl)amino)pyridin-3-yl)isoindolin-1-one], with 0.9 µM.
Then `Cn1c2ccccc2c(=O)n1-c1ccc(N[C@H]2CC[C@H](Nc3nc4cc(C(F)(F)F)ccn4n3)C2)nc1` [Example 87], with 0.6 µM; and `Cc1cc2c(c(C#N)n1)CN(c1ccc(N[C@H]3CC[C@H](Nc4nc5cc(C(F)(F)F)ccn5n4)C3)nc1)C2=O` [Example 90, 6-methyl-1-carbonyl-2-(6-(((1S,3S)-3-((7-(trifluoromethyl)-[1,2,4]triazolo[1,5-a]pyridin-2-yl)amino)cyclopentyl)amino)pyridin-3-yl)-2,3-dihydro-1H-pyrrolo[3,4-c]pyridine-4-carbonitrile], with 2.7 µM.
As for `O=C1c2ncc(Cl)cc2CN1c1ccc(N[C@H]2CC[C@H](Nc3nc4cc(C(F)(F)F)ccn4n3)C2)nc1` [Example 95], the IC50 was 0.7 µM.
Compound `N#Cc1cnc2c(c1)CN(c1ccc(N[C@H]3CC[C@H](Nc4nc5cc(C(F)(F)F)ccn5n4)C3)nc1)C2=O` [Example 96] returned a concentration for half-maximal inhibition (IC50) of 12.7 µM.
As for `Cc1nccc2c1CN(c1ccc(N[C@H]3CC[C@H](Nc4nc5cc(OC(F)F)ccn5n4)C3)nc1)C2=O` [Example 100], the figure is 5 µM.
Then `O=c1nc(O)ccn1-c1ccc(N[C@H]2CC[C@H](Nc3nc4cc(Cl)ccn4n3)C2)nc1` [Example 103], with 1.4 µM.
Then `Cc1cc(N[C@H]2CC[C@H](Nc3nc4cc(C(F)(F)F)ccn4n3)C2)ncc1N1Cc2cccnc2C1=O` [Example 113], with 6.9 µM.
In the case of `O=C1c2cccnc2CN1c1cnc(N[C@H]2CC[C@H](Nc3nc4cc(C(F)(F)F)ccn4n3)C2)c(F)c1` [Example 162], the half-inhibitory concentration (IC50) is 5.3 µM.
For `O=c1ccccn1-c1ccc(N[C@H]2CC[C@H](Nc3nc4cc(C(F)(F)F)ccn4n3)C2)nc1` [Example 426], 14 µM corresponded to half-maximal inhibition (IC50).
